# Experimental data published in patent publication US20230107216A1, “PANTETHEINE DERIVATIVES AND USES THEREOF” (Comet Therapeutics, Inc., priority 2018, published 2023).
# Experiments:
# [1] = test system: tyrosine hydroxylase positive mesencephalic neurons injured by 6-OHDA; assay: Neuroprotective effect on damage induced by 6-OHDA on culture of mesencephalic neurons; type: cell-based; details: Rattus norvegicus, Neuron; 50 uM; 6-OHDA 15 μM, 48h; read-out: % reversion of TH positive neurons (6-OHDA-mediated degradation of dopaminergic neurons)
# Description: The protective effect of compounds of the present disclosure was determined on 6-OHDA-mediated injury on mesencephalon neuronal cultures.
# (§1) A female Wistar rat (Janvier; France) of 15 days gestation was terminated by cervical dislocation, the fetuses were removed from the uterus and their brains were harvested and placed in ice-cold medium (Leibovitz's L15 medium, Gibco). Only ventral mesencephalic flexure was used for the cell preparations. The midbrain was dissociated by trypsinization. The reaction was stopped, and the suspension was triturated and centrifuged. The pellet of dissociated cells was resuspended in chemically defined medium consisted of Neurobasal (Gibco, 21103049), containing B27 supplement (Gibco, A3582801) and L-glutamine (Gibco, 25030081), 10 ng/ml (BDNF; Pepro Tech, France, 450-02) and 1 ng/ml (GDNF; Pepro Tech, 450-51).
# (§2) Viable primary rat embryo mesencephalic cells were counted and seeded on 96-multi-wells plate precoated with poly-L-lysine. Cells were maintained in a humidified incubator at 37° C. in 5% CO2-95% air atmosphere and medium changed on day 2. On day 6, the culture medium was removed and replaced by new media without neurotrophic factors containing the compounds of the present disclosure (50-10 μM) or vehicle (0.1% DMSO). After 1h exposure, injury of mesencephalon neuronal cultures was induced by 6-OHDA (15 μM) for further 48h. A mixture of the growth factors GDNF (1 ng/ml) and BDNF (10 ng/ml) were used as reference compound. On day 8, the tyrosine hydroxylase positive neurons were evaluated. Cultures were fixed 30 min at 4° C. with paraformaldehyde in PBS (4%, Sigma). After, cells were permeabilized with 0.1% Triton X100 for 30 min, saturated with PBS containing 3% of BSA (bovine serum albumin) and incubated 2h with anti-tyrosine hydroxylase antibody (Sigma, 1:10000; clone TH-2) at 1/10000 in PBS containing 0.5% of BSA. Cells were washed three times with PBS containing 0.5% of BSA and incubated 1h with goat anti mouse antibody coupled with AF488 (Invitrogen A11001) diluted at 1/1000 in PBS containing 0.5% of BSA. Finally, nuclei were stained with DAPI (Thermo fisher, D1306) at 1/1000 in PBS containing 0.5% of BSA. After rinsing with PBS, the plate was visualized and examined with Cell Insight HCS (Thermo Scientific) to determine the number of tyrosine hydroxylase positive cells per well.
# (§3) The results for each well were expressed as a percentage by setting the density of tyrosine hydroxylase positive cells under control conditions to 100%. Then the result for each condition was reported as mean±SEM from 4 independent cultures.
# (§4) A global analysis of the data was performed using a one-way analysis of variance (ANOVA), followed by Fisher's Protected Least Significant Difference when applicable. The level of significance was set to p<0.05.
# [2] = test system: tyrosine hydroxylase positive mesencephalic neurons injured by MPP+; assay: Neuroprotective effect on damage induced by MPP+ on culture of mesencephalic neurons; type: cell-based; details: Rattus norvegicus, Neuron, MPP+ 50 μM, 48h, read-out: % reversion of TH positive neurons (MPTP-mediated degradation of dopaminergic neurons)
# Description: as §1, with “(Gibco),” for “(Gibco, 21103049),”, “(Gibco)” for “(Gibco, A3582801)”, “(Gibco),” for “(Gibco, 25030081),”, “France)” for “France, 450-02)”, “Tech).” for “Tech, 450-51).”
# as §2, with “MPP^+ (50” for “6-OHDA (15”, “Thermo Scientific, 28908).” for “Sigma).”, “DAPI” for “DAPI (Thermo fisher, D1306)”
# as §3, §4
# [3] = test system: primary fibroblasts (healthy controls and PA, MMA, BCKDK, PDH, VLCAD, LS, PC, GA, VLCFA, KSS, FXN, HD); assay: Measurement of ROS (H2DCFDA) in primary fibroblasts; type: cell-based, human; details: Homo sapiens, Fibroblast; BCKD GM00612; procedure Example 812; Assay Condition A; read-out: Decreased ROS by at least 10%
# In short: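 Patient and healthy-control primary fibroblasts switched to supplemented DMEM 24 h before assay, then treated with compound (10 μM) plus H2DCFDA (22 μM) for 2 h (PA, MMA lines) or 24 h (other lines). Kinetic fluorescence at 492/527 nm over 60 min; only live cells analysed.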
compound,measurement,setting,value
CC(C)(CO)[C@@H](O)C(=O)NCCC(=O)NCCSC(=O)[C@@H](N)CCC(=O)O [Compound 383],inhibition at 50 µM,[1],≥ 30%
same,inhibition at 10 µM,[2],≥ 60%
same,inhibition at 10 µM,[3],≥ 10%
